Test results as given in patent US20230139445A1, “BACTERIAL CELLS WITH IMPROVED TOLERANCE TO DIACIDS” (priority 2016, published 2023).
Read-outs that look alike come from different tables or passages of the source.

How the values were obtained:
[1] = system: Escherichia coli K-12 MG1655; experiment: Screening for tolerance in wild-type cells: growth in varying concentrations of neutralized diacid, Biolector; format: cell-based; conditions: for tlag (lag time), mean / μ (growth rate), mean: neutralized with sodium hydroxide
Experimental: Escherichia coli K-12 MG1655 was grown overnight in M9 minimal medium+1% glucose and subcultured the following morning to an initial OD600 of 0.05 in M9+1% glucose. Cells were grown to mid-exponential phase (OD600 0.7-1.0) and were back-diluted with fresh medium to an OD600 of 0.7. The diluted cells were used to inoculate M9+1% glucose containing varying concentrations of glutaric acid or adipic acid which were neutralized to pH 7.0 with sodium hydroxide, and growth was measured in FlowerPlates in a Biolector microbioreactor system (m2p-labs) at 37° C. with 1000 rpm shaking. The culture volume in each well was 1.4 mL.

[2] = system: Escherichia coli K-12 MG1655 and evolved isolates; format: cell-based; conditions: 38 g/L sebacic acid
Experimental: Five colonies from wild-type K-12 MG1655 and 10 individual colonies deriving from each population were inoculated into 300 μL M9+1% glucose in 96 well deepwell plates and incubated in a 300 rpm plate shaker at 37° C. The next day, cells were diluted 10× in M9+1% glucose and 30 μL was transferred into clear-bottomed 96 well half-deepwell plates (with rectangular wells) containing M9+1% glucose and M9+1% glucose+52.78 g/L glutaric acid or 55.56 g/L adipic acid, such that the final concentration of glutaric acid or adipic acid was 47.5 g/L or 50 g/L, respectively. In addition, cryogenic glycerol stocks of the overnight culture were saved in a 96 well plate format. Half deepwell plates were incubated at 37° C. with 225 rpm shaking in a Growth Profiler (Enzyscreen), with optical scans of the plates taken at 15 minute intervals. Green pixel values integrated over a 1 mm diameter circular area in each well were converted to OD600 values using a previously determined calibration between OD600 and green pixel values.
Additionally, each evolved isolate was tested for cross-tolerance toward other dicarboxylic acids of interest. […] All diacids tested were either the neutral sodium salts, or the free diacid was neutralized with sodium hydroxide to pH 7.0 for testing.

In the case of O=C(O)CCCCCCCCC(=O)O [sebacic acid], the “tlag (lag time), mean” value ([1]; 10 g/L) is reported as 1.9 h, the “μ (growth rate), mean” value ([1]; 10 g/L, M9+1% glucose, 37° C) is reported as 0.707 h⁻¹ and the “tlag (lag time), mean” value ([1]; 20 g/L) is reported as 2.7 h. The “μ (growth rate), mean” value ([1]; 20 g/L) was 0.578 h⁻¹, the “tlag (lag time), mean” value ([1]; 25 g/L) was 3.3 h and the “μ (growth rate), mean” value ([1]; 25 g/L) was 0.413 h⁻¹. The “tlag (lag time), mean” value ([1]; 30 g/L) was 5.7 h, the “μ (growth rate), mean” value ([1]; 30 g/L) was 0.386 h⁻¹ and the “tlag (lag time), mean” value ([1]; 35 g/L) was 10.8 h. The “μ (growth rate), mean” value ([1]; 35 g/L) was 0.306 h⁻¹, the “tlag (lag time), mean” value ([1]; 40 g/L) was 22.5 h and the “μ (growth rate), mean” value ([1]; 40 g/L) was 0.222 h⁻¹. For the same molecule, the “tlag (lag time), mean” value ([1]; 45 g/L) was 50.6 h, the “μ (growth rate), mean” value ([1]; 45 g/L) was 0.051 h⁻¹ and the “growth of K-12 MG1655” value ([1]; above 40 g/L concentration) was “nearly no growth detected”. The “growth rate μ (mean)” value ([2]; strain ADIP1-1) was 0.244 h⁻¹, the “lag time tlag (mean)” value ([2]; strain ADIP1-1) was 21.6 h and the “growth rate μ (mean)” value ([2]; strain ADIP1-9) was 0.248 h⁻¹. The “lag time tlag (mean)” value ([2]; strain ADIP1-9) was 17.8 h, the “growth rate μ (mean)” value ([2]; strain ADIP2-5) was 0.315 h⁻¹ and the “lag time tlag (mean)” value ([2]; strain ADIP2-5) was 13.5 h. For the same molecule, the “growth rate μ (mean)” value ([2]; strain ADIP2-6) was 0.319 h⁻¹, the “lag time tlag (mean)” value ([2]; strain ADIP2-6) was 12.9 h and the “growth rate μ (mean)” value ([2]; strain ADIP2-10) was 0.290 h⁻¹. The “lag time tlag (mean)” value ([2]; strain ADIP2-10) was 13.4 h, the “growth rate μ (mean)” value ([2]; strain ADIP3-2) was 0.254 h⁻¹ and the “lag time tlag (mean)” value ([2]; strain ADIP3-2) was 17.6 h. The “growth rate μ (mean)” value ([2]; strain ADIP3-4) was 0.262 h⁻¹, the “lag time tlag (mean)” value ([2]; strain ADIP3-4) was 17.1 h and the “growth rate μ (mean)” value ([2]; strain ADIP3-8) was 0.253 h⁻¹. For the same molecule, the “lag time tlag (mean)” value ([2]; strain ADIP3-8) was 19.8 h, the “growth rate μ (mean)” value ([2]; strain ADIP4-1) was 0.308 h⁻¹ and the “lag time tlag (mean)” value ([2]; strain ADIP4-1) was 13.1 h. For the same molecule, the “growth rate μ (mean)” value ([2]; strain ADIP4-8) was 0.289 h⁻¹, the “lag time tlag (mean)” value ([2]; strain ADIP4-8) was 12.8 h and the “growth rate μ (mean)” value ([2]; strain ADIP5-2) was 0.288 h⁻¹. For the same molecule, the “lag time tlag (mean)” value ([2]; strain ADIP5-2) was 15.3 h, the “growth rate μ (mean)” value ([2]; strain ADIP5-6) was 0.273 h⁻¹ and the “lag time tlag (mean)” value ([2]; strain ADIP5-6) was 20.7 h. For the same molecule, the “growth rate μ (mean)” value ([2]; strain ADIP6-3) was 0.268 h⁻¹, the “lag time tlag (mean)” value ([2]; strain ADIP6-3) was 17.9 h and the “growth rate μ (mean)” value ([2]; strain ADIP6-9) was 0.181 h⁻¹. For the same molecule, the “lag time tlag (mean)” value ([2]; strain ADIP6-9) was 23.1 h, the “growth rate μ (mean)” value ([2]; strain ADIP6-10) was 0.267 h⁻¹ and the “lag time tlag (mean)” value ([2]; strain ADIP6-10) was 15.3 h. For the same molecule, the “growth rate μ (mean)” value ([2]; strain ADIP7-2) was 0.356 h⁻¹, the “lag time tlag (mean)” value ([2]; strain ADIP7-2) was 11.1 h and the “growth rate μ (mean)” value ([2]; strain ADIP7-5) was 0.353 h⁻¹. For the same molecule, the “lag time tlag (mean)” value ([2]; strain ADIP7-5) was 12.0 h, the “growth rate μ (mean)” value ([2]; strain ADIP8-3) was 0.171 h⁻¹ and the “lag time tlag (mean)” value ([2]; strain ADIP8-3) was 28.9 h. For the same molecule, the “growth rate μ (mean)” value ([2]; strain ADIP8-7) was 0.157 h⁻¹, the “lag time tlag (mean)” value ([2]; strain ADIP8-7) was 30.9 h and the “growth rate μ (mean)” value ([2]; strain ADIP8-10) was 0.165 h⁻¹. For the same molecule, the “lag time tlag (mean)” value ([2]; strain ADIP8-10) was 30.0 h, the “growth rate μ (mean)” value ([2]; strain GLUT1-3) was 0.074 h⁻¹ and the “lag time tlag (mean)” value ([2]; strain GLUT1-3) was 34.9 h. The “growth rate μ (mean)” value ([2]; strain GLUT1-9) was 0.043 h⁻¹, the “lag time tlag (mean)” value ([2]; strain GLUT1-9) was 44.7 h and the “growth rate μ (mean)” value ([2]; strain GLUT1-10) was 0.278 h⁻¹. For the same molecule, the “lag time tlag (mean)” value ([2]; strain GLUT1-10) was 20.6 h, the “growth rate μ (mean)” value ([2]; strain GLUT2-1) was 0.153 h⁻¹ and the “lag time tlag (mean)” value ([2]; strain GLUT2-1) was 21.7 h. For the same molecule, the “growth rate μ (mean)” value ([2]; strain GLUT2-9) was 0.282 h⁻¹, the “lag time tlag (mean)” value ([2]; strain GLUT2-9) was 12.5 h and the “growth rate μ (mean)” value ([2]; strain GLUT2-10) was 0.093 h⁻¹. The “lag time tlag (mean)” value ([2]; strain GLUT2-10) was 29.8 h, the “growth rate μ (mean)” value ([2]; strain GLUT3-5) was 0.106 h⁻¹ and the “lag time tlag (mean)” value ([2]; strain GLUT3-5) was 20.0 h. The “growth rate μ (mean)” value ([2]; strain GLUT3-7) was 0.068 h⁻¹, the “lag time tlag (mean)” value ([2]; strain GLUT3-7) was 6.4 h and the “growth rate μ (mean)” value ([2]; strain GLUT3-9) was 0.158 h⁻¹. For the same molecule, the “lag time tlag (mean)” value ([2]; strain GLUT3-9) was 18.9 h, the “growth rate μ (mean)” value ([2]; strain GLUT4-1) was 0.266 h⁻¹ and the “lag time tlag (mean)” value ([2]; strain GLUT4-1) was 32.9 h. The “growth rate μ (mean)” value ([2]; strain GLUT4-4) was 0.265 h⁻¹, the “lag time tlag (mean)” value ([2]; strain GLUT4-4) was 34.2 h and the “growth rate μ (mean)” value ([2]; strain GLUT4-10) was 0.113 h⁻¹. For the same molecule, the “lag time tlag (mean)” value ([2]; strain GLUT4-10) was 20.1 h, the “growth rate μ (mean)” value ([2]; strain GLUT5-4) was 0.183 h⁻¹ and the “lag time tlag (mean)” value ([2]; strain GLUT5-4) was 37.7 h. The “growth rate μ (mean)” value ([2]; strain GLUT5-5) was 0.117 h⁻¹, the “lag time tlag (mean)” value ([2]; strain GLUT5-5) was 54.9 h and the “growth rate μ (mean)” value ([2]; strain GLUT5-9) was 0.143 h⁻¹. For the same molecule, the “lag time tlag (mean)” value ([2]; strain GLUT5-9) was 58.2 h, the “growth rate μ (mean)” value ([2]; strain GLUT6-4) was 0.085 h⁻¹ and the “lag time tlag (mean)” value ([2]; strain GLUT6-4) was 26.4 h. For the same molecule, the “growth rate μ (mean)” value ([2]; strain GLUT6-5) was 0.123 h⁻¹, the “lag time tlag (mean)” value ([2]; strain GLUT6-5) was 21.6 h and the “growth rate μ (mean)” value ([2]; strain GLUT6-10) was 0.132 h⁻¹. For the same molecule, the “lag time tlag (mean)” value ([2]; strain GLUT6-10) was 26.2 h, the “growth rate μ (mean)” value ([2]; strain GLUT7-2) was 0.173 h⁻¹ and the “lag time tlag (mean)” value ([2]; strain GLUT7-2) was 17.5 h. The “growth rate μ (mean)” value ([2]; strain GLUT7-6) was 0.141 h⁻¹, the “lag time tlag (mean)” value ([2]; strain GLUT7-6) was 18.9 h and the “growth rate μ (mean)” value ([2]; strain GLUT7-7) was 0.112 h⁻¹. The “lag time tlag (mean)” value ([2]; strain GLUT7-7) was 20.0 h, the “growth rate μ (mean)” value ([2]; strain GLUT8-5) was 0.300 h⁻¹ and the “lag time tlag (mean)” value ([2]; strain GLUT8-5) was 21.4 h. The “growth rate μ (mean)” value ([2]; strain GLUT8-6) was 0.464 h⁻¹, the “lag time tlag (mean)” value ([2]; strain GLUT8-6) was 13.7 h and the “growth rate μ (mean)” value ([2]; strain GLUT8-9) was 0.471 h⁻¹. The “lag time tlag (mean)” value ([2]; strain GLUT8-9) was 14.5 h, the “growth rate μ (mean)” value ([2]; strain MG1655 (Table 28)) was 0.167 h⁻¹ and the “lag time tlag (mean)” value ([2]; strain MG1655 (Table 28)) was 26.9 h. For the same molecule, the “growth rate μ (mean)” value ([2]; strain MG1655 (Table 29)) was 0.135 h⁻¹ and the “lag time tlag (mean)” value ([2]; strain MG1655 (Table 29)) was 28.2 h.
